From PubChem BioAssay AID330 (DTP/NCI, 2004)
Values joined by “and” are separate entries in the source; they are usually repeats but may differ in a detail not shown here. Equal values may be shown once. Inconclusive results and toxic doses are left out. The calls were made as follows: active = survival T/C of 150% or more; inactive = T/C below 125% in these data.

System: P388 leukemia ip, CD2F1 mice, survival T/C
Test: NCI In Vivo Anticancer Drug Screen. Data for tumor model P388 Leukemia (intraperitoneal) in CD2F1 (CDF1) mice
Conditions: endpoint: median survival time, higher = longer survival
How it was run: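 Mice carrying the transplanted tumor received test compound or vehicle. Survival was recorded in each group, and the value is the treated-group measurement divided by that of the vehicle-treated control group.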

[1] = dose: 60.0 mg/kg/injection, schedule: Q01DX005 (ip), vehicle: saline with Tween-80
[2] = dose: 60.0 mg/kg/injection, schedule: Q01DX005 (ip), vehicle: Klucel (hydroxypropylcellulose) (HPC)
[3] = dose: 120.0 mg/kg/injection, schedule: Q01DX005 (ip), vehicle: Klucel (hydroxypropylcellulose) (HPC)
[4] = dose: 120.0 mg/kg/injection, schedule: Q01DX005 (ip), vehicle: saline with Tween-80
[5] = dose: 240.0 mg/kg/injection, schedule: Q01DX005 (ip), vehicle: saline with Tween-80

Measured: T/C

c1csc(-c2ccn[nH]2)c1
inactive: dose: 15.0 mg/kg/injection, schedule: Q01DX005 (ip), vehicle: saline with Tween-80 100 % of control | dose: 30.0 mg/kg/injection, schedule: Q01DX005 (ip), vehicle: saline with Tween-80 100 % of control | [1] 116 % of control and 91 % of control

C=C1C(=O)OC2C(OC(C)=O)CCCC12 (stereo unspecified)
inactive: [2] 112 % of control | [3] 103 % of control | dose: 240.0 mg/kg/injection, schedule: Q01DX005 (ip), vehicle: Klucel (hydroxypropylcellulose) (HPC) 108 % of control

COC(=O)c1nc2[nH]n(-c3ccccc3)c(=O)c2c(C(=O)OC)c1C(C)C(=O)c1ccccc1 (stereo unspecified)
inactive: [1] 100 % of control | [4] 109 % of control | [5] 94 % of control

NC(=O)c1ccc2nccn2c1
inactive: dose: 50.0 mg/kg/injection, schedule: Q04DX003 (ip), vehicle: saline 101 % of control | dose: 100.0 mg/kg/injection, schedule: Q04DX003 (ip), vehicle: saline 115 % of control | dose: 200.0 mg/kg/injection, schedule: Q04DX003 (ip), vehicle: saline 119 % of control

CS(=O)(=O)OCc1ccc(COS(C)(=O)=O)cc1
inactive: dose: 12.5 mg/kg/injection, schedule: Q04DX003 (ip), vehicle: Klucel (hydroxypropylcellulose) (HPC) 123 % of control

Fc1ccc(CSC(=S)Nc2ccc(Br)cc2)cc1
inactive: dose: 50.0 mg/kg/injection, schedule: Q01DX009 (ip), vehicle: suspension in saline 100 % of control | dose: 100.0 mg/kg/injection, schedule: Q01DX009 (ip), vehicle: suspension in saline 108 % of control | dose: 200.0 mg/kg/injection, schedule: Q01DX009 (ip), vehicle: suspension in saline 101 % of control

CC(=O)OC(C[N+](=O)[O-])C(Cl)(Cl)Cl (stereo unspecified)
inactive: dose: 6.25 mg/kg/injection, schedule: Q01DX009 (ip), vehicle: saline with Tween-80 104 % of control | dose: 12.5 mg/kg/injection, schedule: Q01DX009 (ip), vehicle: saline with Tween-80 109 % of control | dose: 25.0 mg/kg/injection, schedule: Q01DX009 (ip), vehicle: saline with Tween-80 100 % of control

CCN1C(=O)N(CC)C2(CC(=O)c3ccccc3O2)C1=O (stereo unspecified)
inactive: dose: 60.0 mg/kg/injection, schedule: Q01DX005 (ip), vehicle: saline 111 % of control | dose: 120.0 mg/kg/injection, schedule: Q01DX005 (ip), vehicle: saline 108 % of control | dose: 240.0 mg/kg/injection, schedule: Q01DX005 (ip), vehicle: saline 110 % of control

Cc1cc(=O)n(C)c2ccc([N+](=O)[O-])cc12
inactive: dose: 50.0 mg/kg/injection, schedule: Q01DX009 (ip), vehicle: Klucel (hydroxypropylcellulose) (HPC) 106 % of control | dose: 100.0 mg/kg/injection, schedule: Q01DX009 (ip), vehicle: Klucel (hydroxypropylcellulose) (HPC) 108 % of control | dose: 200.0 mg/kg/injection, schedule: Q01DX009 (ip), vehicle: Klucel (hydroxypropylcellulose) (HPC) 108 % of control

COc1cc(C(C)c2cc3c(cc2OCC(=O)O)OCO3)cc(OC)c1OC (stereo unspecified)
inactive: dose: 50.0 mg/kg/injection, schedule: Q01DX005 (ip), vehicle: distilled water + Tween-80 102 % of control | dose: 100.0 mg/kg/injection, schedule: Q01DX005 (ip), vehicle: distilled water + Tween-80 97 % of control | dose: 200.0 mg/kg/injection, schedule: Q01DX005 (ip), vehicle: distilled water + Tween-80 93 % of control

Cc1cc2c(cc1C)NC1=C(N2)OC(c2ccc3c(c2)OCO3)C1=O (stereo unspecified)
inactive: dose: 30.0 mg/kg/injection, schedule: Q01DX005 (ip), vehicle: Klucel (hydroxypropylcellulose) (HPC) 88 % of control | [2] 101 % of control and 97 % of control | [3] 100 % of control and 104 % of control

O/N=C(\CC(O)(C(F)(F)F)C(F)(F)F)c1cccs1
inactive: dose: 100.0 mg/kg/injection, schedule: Q04DX003 (ip), vehicle: saline with Tween-80 100 % of control | dose: 200.0 mg/kg/injection, schedule: Q04DX003 (ip), vehicle: saline with Tween-80 95 % of control | dose: 400.0 mg/kg/injection, schedule: Q04DX003 (ip), vehicle: saline with Tween-80 108 % of control

O=C(O)c1ccc2n[se]nc2c1
inactive: [1] 96 % of control | [4] 105 % of control | [5] 97 % of control

CCOC(=O)c1c[nH]c2cc3ccccc3cc2c1=O
inactive: dose: 50.0 mg/kg/injection, schedule: Q01DX009 (ip), vehicle: saline 91 % of control | dose: 100.0 mg/kg/injection, schedule: Q01DX009 (ip), vehicle: saline 107 % of control | dose: 200.0 mg/kg/injection, schedule: Q01DX009 (ip), vehicle: saline 117 % of control

COC(=O)C(Cc1ccc(O)cc1)NS(=O)(=O)Cc1ccccc1 (stereo unspecified)
inactive: dose: 50.0 mg/kg/injection, schedule: Q01DX009 (ip), vehicle: saline with Tween-80 107 % of control | dose: 100.0 mg/kg/injection, schedule: Q01DX009 (ip), vehicle: saline with Tween-80 96 % of control | dose: 200.0 mg/kg/injection, schedule: Q01DX009 (ip), vehicle: saline with Tween-80 99 % of control

CCOc1ccc(C2=C(O)/C(=C(\C(=O)Nc3nccs3)c3ccc(OCC)cc3)OC2=O)cc1
inactive: dose: 12.5 mg/kg/injection, schedule: Q01DX005 (ip), vehicle: Klucel (hydroxypropylcellulose) (HPC) 109 % of control | dose: 25.0 mg/kg/injection, schedule: Q01DX005 (ip), vehicle: Klucel (hydroxypropylcellulose) (HPC) 104 % of control | dose: 50.0 mg/kg/injection, schedule: Q01DX005 (ip), vehicle: Klucel (hydroxypropylcellulose) (HPC) 100 % of control and 104 % of control

COS(=O)(=O)C(F)(F)F
inactive: dose: 100.0 mg/kg/injection, schedule: Q01DX001 (ip), vehicle: saline 111 % of control | dose: 200.0 mg/kg/injection, schedule: Q01DX001 (ip), vehicle: saline 111 % of control | dose: 400.0 mg/kg/injection, schedule: Q01DX001 (ip), vehicle: saline 111 % of control

CC1OC2CC(=O)OC2C2=C1C(=O)c1cc(-c3cc(O)c4c(c3)C(=O)C3=C(C4=O)C4OC(=O)CC4OC3C)cc(O)c1C2=O (stereo unspecified)
inactive: dose: 0.95 mg/kg/injection, schedule: Q01DX005 (ip), vehicle: DMSO 98 % of control | dose: 1.9 mg/kg/injection, schedule: Q01DX005 (ip), vehicle: DMSO 107 % of control | dose: 3.8 mg/kg/injection, schedule: Q01DX005 (ip), vehicle: DMSO 99 % of control

COc1ccccc1N1CCN(c2nc(NC(=O)c3ccccc3)nn2C)CC1
inactive: [2] 112 % of control | [3] 87 % of control

CCC1C[N+]2=C(c3cc(OC)c(OC)cc3CC2)c2c1cc1n2CCc2cc(OC)c(OC)cc2-1 (stereo unspecified)
inactive: dose: 0.75 mg/kg/injection, schedule: Q01DX005 (ip), vehicle: saline with Tween-80 101 % of control | dose: 1.5 mg/kg/injection, schedule: Q01DX005 (ip), vehicle: saline with Tween-80 109 % of control | dose: 3.0 mg/kg/injection, schedule: Q01DX005 (ip), vehicle: saline with Tween-80 117 % of control | dose: 3.12 mg/kg/injection, schedule: Q01DX005 (ip), vehicle: saline with Tween-80 111 % of control | dose: 6.25 mg/kg/injection, schedule: Q01DX005 (ip), vehicle: saline with Tween-80 109 % of control | dose: 12.5 mg/kg/injection, schedule: Q01DX005 (ip), vehicle: saline with Tween-80 114 % of control

CCN(CC)CCCNc1cc(OC)c(Nc2ccccc2)c2cccnc12
inactive: dose: 3.12 mg/kg/injection, schedule: Q01DX005 (ip), vehicle: suspension in saline 112 % of control | dose: 6.25 mg/kg/injection, schedule: Q01DX005 (ip), vehicle: suspension in saline 100 % of control | dose: 12.5 mg/kg/injection, schedule: Q01DX005 (ip), vehicle: suspension in saline 99 % of control

O=C(Nc1ccc(Sc2ccc(N=Nc3c(O)c(S(=O)(=O)O)cc4cc(S(=O)(=O)O)ccc34)cc2)cc1)c1ccc(N=Nc2c(O)c(S(=O)(=O)O)cc3cc(S(=O)(=O)O)ccc23)cc1
inactive: dose: 50.0 mg/kg/injection, schedule: Q01DX005 (ip), vehicle: saline with Tween-80 98 % of control | dose: 100.0 mg/kg/injection, schedule: Q01DX005 (ip), vehicle: saline with Tween-80 104 % of control | dose: 200.0 mg/kg/injection, schedule: Q01DX005 (ip), vehicle: saline with Tween-80 104 % of control
